Experimental data as given in patent publication US9611248B2, “Chemical compounds” (Syngenta Participations AG, priority 2013, dated 2017).

tested on: a variety of test species; assay: Post-emergence herbicidal activity; type: in vivo; design: key to ABUTH (Abutilon theophrasti) damage score / AMARE (Amaranthus retroflexus) damage score / ALOMY (Alopecurus myosuroides) damage score / ECHCG (Echinochloa crus-galli) damage score / ZEAMX (Zea mays) damage score / SOLNI (Solanum nigrum) damage score: 0 = no damage to plant, 5 = total damage to plant; details: rate 1000 g/ha, evaluated after 13 days
Summary of the method: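 Damage on a 0–5 scale (5 = plant killed) was rated 13 days after treatment. Test species had been sown in standard soil and raised 8 days under glasshouse conditions of 24/16 °C, 14 h light, 65% humidity. They were then sprayed with aqueous solution from an acetone/water 50:50 formulation containing 0.5% Tween 20.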

| Structure (SMILES) | ABUTH (Abutilon theophrasti) damage score | ALOMY (Alopecurus myosuroides) damage score | AMARE (Amaranthus retroflexus) damage score | ECHCG (Echinochloa crus-galli) damage score | SETFA (Setaria faberi) damage score | ZEAMX (Zea mays) damage score |
| --- | --- | --- | --- | --- | --- | --- |
| CC1=C(Cl)C(O)N(c2nccc(C(C)(C)C)n2)C1=O (racemic) [DA1] | 4 | 4 | 3 | 4 | 5 | 0 |
| COC1=C(C)C(=O)N(c2cc(C(C)(C)C)cnn2)C1O (centres unmarked) [BD1, 1-(5-tert-butylpyridazin-3-yl)-2-hydroxy-3-methoxy-4-methyl-2H-pyrrol-5-one] | 5 | 4 | 5 | 5 | 5 | 1 |
| CC1=C(Cl)C(O)N(c2cc(C)c(-c3ccsc3)cn2)C1=O (centres unmarked) [AA48] | 4 | 1 | 5 | 3 | 4 | 0 |
| COC1=C(C)C(=O)N(c2cc(C(F)(F)F)ncn2)C1O (racemic) [CD4] | 5 | 5 | 3 | 5 | 5 | 1 |
| COC1=C(C)C(=O)N(c2cc(C(F)(F)F)c(-c3cc(F)c(F)c(F)c3)cn2)C1O (centres unmarked) [AD126] | 5 | 3 | 5 | 3 | 5 | 1 |
| CC1=C(Cl)C(O)N(c2cc(C(C)C)c(C(=O)NC(C)(C)C)cn2)C1=O (centres unmarked) [AA49] | 3 | 2 | – | 1 | 3 | 0 |
| COC1=C(Br)C(=O)N(c2cc(C(C)(C)C)ncn2)C1O (racemic) [CE1] | 4 | 2 | 5 | 3 | 4 | 1 |
| CCOC(=O)c1cnc(N2C(=O)C(C)=C(Cl)C2O)cc1Cl (centres unmarked) [AA47] | 1 | 1 | 0 | 2 | 3 | 1 |
| COC1=C(C)C(=O)N(c2cc(C(F)(F)F)ccn2)C1O (centres unmarked) [AD34] | 5 | 5 | 5 | 5 | 5 | 0 |
| COC1=C(Cl)C(O)N(c2cc(C(C)(C)C)ccn2)C1=O (centres unmarked) [AF1] | 5 | 2 | 5 | 4 | 4 | 1 |
| COc1nnc(N2C(=O)C(C)=C(Cl)C2O)cc1C (centres unmarked) [BA1] | 2 | 2 | 3 | 1 | 2 | 1 |
| CCOC(=O)c1cnc(N2C(=O)C(C)=C(OC)C2O)cc1Cl (centres unmarked) [AD68] | 3 | 1 | 5 | 4 | 5 | 1 |
| COC1=C(C)C(=O)N(c2cc(C(F)(F)F)c(C#N)cn2)C1O (centres unmarked) [AD26, 6-(2-hydroxy-3-methoxy-4-methyl-5-oxo-2H-pyrrol-1-yl)-4-(trifluoromethyl)pyridine-3-carbonitrile] | 5 | 4 | 5 | 5 | 4 | 2 |
| COC1=C(C)C(=O)N(c2cc(C(F)(F)F)c(C=C(C)C)cn2)C1O (centres unmarked) [AD21, 2-hydroxy-3-methoxy-4-methyl-1-[5-(2-methylprop-1-enyl)-4-(trifluoromethyl)-2-pyridyl]-2H-pyrrol-5-one] | 5 | 2 | 5 | 5 | 4 | 0 |
| CCC1=C(Cl)C(O)N(c2cc(C(F)(F)F)ccn2)C1=O (centres unmarked) [AA43] | 2 | 1 | 2 | 5 | 3 | 1 |
| CC1=C(Cl)C(O)N(c2cc(C(F)(F)F)ncn2)C1=O (centres unmarked) [CA2] | 0 | 1 | 0 | 0 | 0 | 0 |
| COC1=C(C)C(=O)N(c2cc(C(F)(F)F)c(/C(C)=C\C#N)cn2)C1O (centres unmarked) [AD58, (Z)-3-[6-(2-hydroxy-3-methoxy-4-methyl-5-oxo-2H-pyrrol-1-yl)-4-(trifluoromethyl)-3-pyridyl]but-2-enenitrile] | 5 | 4 | 5 | 5 | 5 | 2 |
| CCOc1cnc(N2C(=O)C(C)=C(OC)C2O)cc1C(F)(F)F (centres unmarked) [AD55] | 5 | 5 | 5 | 5 | 5 | 3 |
| COC1=C(C)C(=O)N(c2cc(C(F)(F)Cl)ccn2)C1O (centres unmarked) [AD67] | 5 | 4 | 5 | 5 | 5 | 1 |
| COC1=C(C)C(=O)N(c2cc(C(C)(C)CCl)ccn2)C1O (centres unmarked) [AD52] | 5 | 5 | 4 | 5 | 5 | 1 |
| CCCCOc1cnc(N2C(=O)C(C)=C(OC)C2O)cc1C(F)(F)F (centres unmarked) [AD78] | 4 | 3 | 5 | 5 | 5 | 2 |
| COC1=C(C)C(=O)N(c2cc(C(F)(F)F)c(OCCCF)cn2)C1O (centres unmarked) [AD79] | 5 | 5 | 5 | 5 | 5 | 2 |
| COC1=C(C)C(=O)N(c2cc(OC(F)(F)F)ccn2)C1O (centres unmarked) [AD39] | 4 | 4 | 2 | 4 | 4 | 0 |
| CCCC1=C(Cl)C(O)N(c2cc(C(C)(C)C#N)ncn2)C1=O (centres unmarked) [CA4] | 2 | 1 | 1 | 0 | 1 | 1 |
| COC1=C(Br)C(O)N(c2cc(C(F)(F)F)ccn2)C1=O (centres unmarked) [AE1, 3-bromo-2-hydroxy-4-methoxy-1-[4-(trifluoromethyl)-2-pyridyl]-2H-pyrrol-5-one] | 4 | 3 | 5 | 5 | 3 | 0 |
| CCC1=C(Br)C(O)N(c2cc(C(C)(C)C#N)ncn2)C1=O (racemic) [CB2] | 3 | 1 | 3 | 1 | 0 | 0 |
| COC1=C(C)C(=O)N(c2cc(C(F)(F)F)c(-c3ccc(F)cc3)cn2)C1O (centres unmarked) [AD59] | 5 | 4 | 5 | 4 | 5 | 1 |
| CCOc1nnc(N2C(=O)C(C)=C(OC)C2O)cc1C(C)C (centres unmarked) [BD7] | 5 | 5 | 5 | 5 | 5 | 3 |
| CC1=C(Cl)C(O)N(c2cc(C(F)(F)F)c(C(=O)OC(C)(C)C)cn2)C1=O (centres unmarked) [AA45] | 2 | 2 | 3 | 1 | 2 | 1 |
